These results are taken from ChEMBL document CHEMBL5034039, “Discovery of Novel, Orally Bioavailable Pyrimidine Ether-Based Inhibitors of ELOVL1” (J Med Chem, 2021).

Molecules are shown by their SMILES. Bounds are passed on as bounds.

The nature of data set [1]: Lipophilicity, logD of the compound at pH 7.4. It is filed as physicochemical. Conditions: buffer.
Data set [2] in a line: Intrinsic clearance in rat hepatocytes assessed per million cells. The format is ADME, cell-based, Hepatocyte. The settings on record: read-out: CLH.
Data set [3] concerns the target T1, Very long chain fatty acid elongase 1 (Homo sapiens, UniProt Q9BW60).
T1 sequence (Q9BW60 whole entry): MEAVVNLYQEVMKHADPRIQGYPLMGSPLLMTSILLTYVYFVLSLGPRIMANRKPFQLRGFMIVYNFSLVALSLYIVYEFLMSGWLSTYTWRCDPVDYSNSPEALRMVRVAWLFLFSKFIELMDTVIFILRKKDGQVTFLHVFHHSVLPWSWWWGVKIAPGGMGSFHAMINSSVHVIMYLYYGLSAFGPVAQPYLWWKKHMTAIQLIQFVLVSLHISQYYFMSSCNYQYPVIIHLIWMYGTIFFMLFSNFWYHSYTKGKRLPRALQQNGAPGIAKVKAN
Nature of the data set: Inhibition of ELOVL1 in HEK293 cells assessed as reduction of C26:0 lipo phosphatidyl choline synthesis. The format is cell-based.

The target in data set [4] is T1, Very long chain fatty acid elongase 1. Kind of data set: Inhibition of ELOVL1 (unknown origin).
Data set [5] is described as follows: Reduction in C26:0/C16:0 LPC level in ABCD1 knock out mouse CNS at 10 mg/kg, po qd and measured after 3 months relative to control. The format is functional. The arrangement: scale not given: the % may be the effect or the level left. The settings on record: 2190 h.
Data set [6] is described as follows: Reduction in C26:0/C16:0 LPC level in ABCD1 knock out mouse CNS at 10 mg/kg, po qd and measured after 8 months relative to control. It is filed as functional. On the set-up: scale not given: the % may be the effect or the level left. Conditions: 5840 h.

In data set [1], `Cc1ccnn1CCOc1cc(N2CCCCC2)ncn1` had a log distribution coefficient (logD) of 2.8. The hepatocyte CLint in data set [2] stood at 366 µL/min/1e6 cells. Besides, the IC50 in data set [3] amounted to 140 nM.

Turning to `CN(C)c1cc(OCCc2ccc(F)cc2)ncn1`, in data set [1], the logD was determined as 3.6. Moreover, the hepatocyte CLint in data set [2] worked out at 539 µL/min/1e6 cells. Further, the IC50 in data set [3] is 60 nM.

As to `Fc1ccc(CCOc2cc(N3CCCCC3)ncn2)cc1`, the hepatocyte CLint in data set [2] was found to be 139 µL/min/1e6 cells. The IC50 in data set [3] came to 80 nM; in data set [4], 220 nM.

In data set [1], `c1cnn([C@H]2C[C@@H](Oc3cc([C@H]4C[C@H](n5cccn5)C4)ncn3)C2)c1` showed a log distribution coefficient (logD) of 2.6. Further, the hepatocyte CLint in data set [2] worked out at 5.6 µL/min/1e6 cells. For the same compound, the half-inhibitory concentration (IC50) in data set [3] was 10 nM.

In turn, `Fc1ccc(CCOc2cc(N3CCCCCC3)ncn2)cc1` yielded a pH-dependent lipophilicity (logD) in data set [1] of 5.3. In data set [2], the hepatocyte CLint turned out to be 273 µL/min/1e6 cells. The half-inhibitory concentration (IC50) in data set [3] is 230 nM.

In data set [1], `Fc1ccc(CCOc2cc(N3CCCOCC3)ncn2)cc1` displayed a pH-dependent lipophilicity (logD) of 3.4. In addition, the hepatocyte CLint in data set [2] worked out at 144 µL/min/1e6 cells. The IC50 in data set [3] was 3 nM.

With `c1ccc([C@H]2CN(c3cc(O[C@H]4C[C@@H](n5ccnn5)C4)ncn3)CCO2)cc1`, in data set [1], the logD was 2.9. Besides, in data set [2], the hepatocyte CLint was determined as 14 µL/min/1e6 cells. Besides, the 50% inhibitory concentration (IC50) in data set [3] worked out at 9 nM.

Compound `Fc1ccn([C@H]2C[C@H](c3cc(O[C@H]4C[C@@H](n5cccn5)C4)ncn3)C2)n1` had a pH-dependent lipophilicity (logD) in data set [1] of 3.1. The hepatocyte CLint in data set [2] worked out at 8.4 µL/min/1e6 cells. Moreover, in data set [3], the IC50 turned out to be 0.3 nM.

Compound `Cc1ccnn1CCCOc1cc(N2CCOC(c3ccnn3C)C2)ncn1` (stereo unspecified) gave a log distribution coefficient (logD) in data set [1] of 2.1. In data set [2], the hepatocyte CLint amounted to 23 µL/min/1e6 cells. In addition, in data set [3], the IC50 worked out at 140 nM.

In turn, `CN(c1cc(OCCc2ccc(F)cc2)ncn1)C1CCOC1` (stereo unspecified) displayed a logD in data set [1] of 3.6. Further, in data set [2], the hepatocyte CLint is 327 µL/min/1e6 cells. In data set [3], the IC50 was determined as 60 nM.

`c1ccc([C@H]2CN(c3cc(O[C@H]4C[C@@H](c5ncco5)C4)ncn3)CCO2)cc1` had a pH-dependent lipophilicity (logD) in data set [1] of 3.9. In addition, the hepatocyte CLint in data set [2] is 17 µL/min/1e6 cells. In addition, the half-inhibitory concentration (IC50) in data set [3] is 5 nM.

In data set [1], `Fc1ccc(CCOc2cc(N3CCCC3)ncn2)cc1` gave a logD of 3.9. Further, in data set [2], the hepatocyte CLint is 273 µL/min/1e6 cells. The half-inhibitory concentration (IC50) in data set [3] turned out to be 430 nM.

In the case of `O=C(Nc1ccn(-c2ccnc(F)c2)n1)C1(c2ccccc2F)CC1`, the Activity in data set [5] was determined as 34%; in data set [6], 65%.

With `Fc1ccc(CCOc2cc(N3CCCCC3)ccn2)cc1`, the IC50 in data set [3] was 440 nM; in data set [4], 860 nM.

The compound `Cc1ccnn1CCCOc1cc(N2CCOC(c3ccccc3)C2)ncn1` (stereo unspecified) came in with a pH-dependent lipophilicity (logD) in data set [1] of 3.8. In data set [2], the hepatocyte CLint was 111 µL/min/1e6 cells. The IC50 in data set [3] stood at 7 nM.

In turn, `Fc1ccc(CCOc2cc(-c3cccnc3)ccn2)cc1` yielded an IC50 in data set [4] above 20000 nM.

In data set [1], `Cc1ccnn1CCCOc1cc(N2CCCCC2)ncn1` yielded a logD of 3.2. For the same compound, the hepatocyte CLint in data set [2] was determined as 184 µL/min/1e6 cells. For the same compound, the IC50 in data set [3] is 7 nM.

For `Cc1ccnn1CCCOc1cc(N2CCOC3(COC3)C2)ncn1`, the logD in data set [1] stood at 1.6. Besides, in data set [2], the hepatocyte CLint stood at 13 µL/min/1e6 cells. Besides, in data set [3], the IC50 is 120 nM.

`c1ccc([C@H]2CN(c3cc(O[C@H]4C[C@@H](c5ccccc5)C4)ncn3)CCO2)cc1` yielded a logD in data set [1] of 5.7. Besides, in data set [2], the hepatocyte CLint was 11 µL/min/1e6 cells. In addition, in data set [3], the IC50 was 15 nM.

For `Fc1ccc(CCOc2ccc(-c3cccnc3)cn2)cc1`, the IC50 in data set [3] turned out to be 6700 nM; in data set [4], 21000 nM.

`c1ccc([C@H]2CN(c3cc(O[C@H]4C[C@@H](c5nnco5)C4)ncn3)CCO2)cc1`: the logD in data set [1] was 2.8. Also, the hepatocyte CLint in data set [2] amounted to 8 µL/min/1e6 cells. The half-inhibitory concentration (IC50) in data set [3] came out at 9 nM.

For the compound `Clc1ccn([C@H]2C[C@H](c3cc(O[C@H]4C[C@@H](n5cccn5)C4)ncn3)C2)n1`, in data set [1], the logD turned out to be 3.5. The hepatocyte CLint in data set [2] came to 12 µL/min/1e6 cells. Besides, in data set [3], the IC50 came to 2 nM.

Compound `Cc1ccnn1CCCOc1cc(N2CCOC(C(F)(F)F)C2)ncn1` (stereo unspecified) had a pH-dependent lipophilicity (logD) in data set [1] of 2.9. Moreover, the hepatocyte CLint in data set [2] was found to be 194 µL/min/1e6 cells. In addition, in data set [3], the IC50 amounted to 7 nM.

In turn, `c1cnn([C@H]2C[C@@H](Oc3cc([C@H]4C[C@@H](n5cccn5)C4)ncn3)C2)c1` returned a log distribution coefficient (logD) in data set [1] of 2.6. In addition, in data set [2], the hepatocyte CLint came to 12 µL/min/1e6 cells. For the same compound, in data set [3], the IC50 was 210 nM.

Turning to `Fc1cnn([C@H]2C[C@H](c3cc(O[C@H]4C[C@@H](n5cccn5)C4)ncn3)C2)c1`, the log distribution coefficient (logD) in data set [1] is 3.1. The hepatocyte CLint in data set [2] was 9.2 µL/min/1e6 cells. For the same compound, in data set [3], the IC50 is 0.6 nM.

In data set [1], `Fc1ccc(CCOc2cc(N3CCOCC3)ncn2)cc1` registered a logD of 3.3. Further, the hepatocyte CLint in data set [2] amounted to 137 µL/min/1e6 cells. Besides, the half-maximal inhibitory concentration (IC50) in data set [3] was 12 nM.

Turning to `Cc1ccnn1CCCOc1cc(N2C3COCC2C3)ncn1`, the logD in data set [1] is 1.3. Further, in data set [2], the hepatocyte CLint was 40 µL/min/1e6 cells. Further, the half-inhibitory concentration (IC50) in data set [3] is 230 nM.
